Laboratory results: the METLIN SMRT retention time set (Domingo-Almenara et al. 2019)

Assay: gradient 5% acetonitrile 3 min, to 50% in 2 min, to 85% in 15 min, held 3 min, 100 µL/min
Conditions: column: Zorbax Extend-C18 2.1 x 50 mm; eluents: water / acetonitrile, 0.1% formic acid
Procedure, shortened: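 Pure standards were analyzed in mixtures of ~100 molecules using HPLC coupled to a quadrupole time-of-flight mass spectrometer, in both positive and negative ionization mode. Separation used a Zorbax Extend-C18 column (2.1 × 50 mm, 1.8 μm) at 100 μL/min, with water and acetonitrile each containing 0.1% formic acid. Dead and dwell volumes were 40 μL and 900 μL, and data were collected over 3 months. Retention time was read from computationally picked adduct peaks, each inspected manually.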

| SMILES | RP-LC retention time [s] |
| --- | --- |
| C#CCOCC1CN(c2ccccc2)C(=O)O1 (stereo unspecified) | 833 |
| CC(C)c1cccc(NC(=O)Cn2ncc3c(N4CCN(c5ccccn5)CC4)ncnc32)c1 | 570 |
| CCCSCCCNC(=O)C1CCCN(c2nc3ccccc3n(CC)c2=O)C1 (stereo unspecified) | 1040 |
| COCC1(O)CCOC2(CCN(Cc3cccc(F)c3F)CC2)C1 (stereo unspecified) | 589 |
| COc1ccc2[nH]c(I)c(CCNC(C)=O)c2c1 | 760 |
| COc1cc(C2CC(=O)c3c([nH]c(C(=O)OC4CCCCCC4)c3C)C2)cc(OC)c1OC (stereo unspecified) | 1160 |
| O=C(NC1CCCCCCC1)C1CCCN(C(=O)Cc2cccc3ccccc23)C1 (stereo unspecified) | 1060 |
| CSc1cccc(NC(=O)Cn2c(=O)n(C3CC3)c(=O)c3nscc32)c1 | 705 |
| CCCCOP(=O)(OCCCC)C1(C)CC(=O)CC(C)(C)C1 (stereo unspecified) | 1100 |
| O=C(NCCN1CCc2ccccc2C1)c1cccc(N2CCNC(c3ccccc3)C2)n1 (stereo unspecified) | 576 |
| CCn1c(C(=O)NC2CCCC2)cc2sc(Cl)cc21 | 1110 |
| O=C(c1ccc(Br)cc1)N1CCc2[nH]nc(C(=O)N3CCOCC3)c2C1 | 661 |
| COCCC1CCN(C(=O)COc2ccc(Cl)cc2)CC1 | 849 |
| CNC(=O)Nc1ccc(C2(C(=O)N3CCN(c4ccccc4F)CC3)CCC2)cc1 | 799 |
| COc1ccccc1NC(=O)N1C[C@@H](F)C[C@H]1C(=O)N1CCCCC1 | 677 |
| CC1CN(C(=O)NCC2CCCO2)c2ccccc2O1 (stereo unspecified) | 754 |
| COc1cccc(N2CCN(c3ccnc(SCC(=O)NCCCc4ccccc4)n3)CC2)c1 | 804 |
| O=C(C1CCN(c2ccc(Sc3ccc(Cl)cc3)nn2)CC1)N1CCN(c2ncccn2)CC1 | 801 |
| O=C(C1CCCN1)N1CCC(OCc2nc(-c3ccncc3)no2)CC1 (stereo unspecified) | 565 |
| O=C(c1cccc(F)c1)N1CCN(c2cc(-c3cccs3)[nH]n2)CC1 | 774 |
| CN(C1CCc2nn(CC3CC3)c(=O)n2CC1)S(=O)(=O)Cc1ccccc1 (stereo unspecified) | 747 |
| Cc1nc(-c2cn(C(C)C)c3ncccc23)sc1C(=O)N1CCN(C(C)C)CC1 | 622 |

| SMILES | RP-LC retention time [s] |
| --- | --- |
| CCN(CC)C(=O)Cn1nc2c(SCc3ccc(Cl)cc3)nccn2c1=O | 930 |
| Cn1ncc2c(Sc3ccc(Cl)cc3)ncnc21 | 1000 |
| O=C(NCc1ccc(F)cc1F)C1CCCN(c2cn[nH]c(=O)c2)C1 (stereo unspecified) | 660 |
| CCCCN(C)C(=O)Cn1c(C2CCCN2C(C)=O)nc2ccccc21 (stereo unspecified) | 627 |
| COCCNC(=O)Nc1cccn2c(C)nnc12 | 556 |
| CCCC(NC(=O)c1ccccn1)C(=O)Nc1nc2ccccc2[nH]1 (stereo unspecified) | 670 |
| Cn1cccc1C(=O)N1CCC(OCc2nc(C3CC3)no2)CC1 | 799 |
| O=C(c1csc(C(=O)N2CCCC2)n1)N1CCSCC1 | 700 |
| CCC1Oc2ccc(S(=O)(=O)N3CCC(C(=O)N4CCOCC4)CC3)cc2NC1=O (stereo unspecified) | 691 |
| O=C(Cn1c(=O)oc2ccccc21)N1CC(n2cc(COCc3ccccc3)nn2)C1 | 773 |
| CCN1CCN(Cc2nc3cc(NC(=O)CC(C)C)ccc3n2C(C)C)CC1 | 571 |
| CCCN(C(=O)c1ccco1)c1nc(-c2ccccc2)cs1 | 1250 |
| CCN1CCN(C(=O)CS(=O)Cc2cnn(-c3ccccc3)c2-n2cccc2)CC1 (stereo unspecified) | 614 |
| CCCc1cc(N2CCN(C(=O)c3cccs3)CC2)nc2nnc(C)n12 | 613 |
| COc1cccc(CCC(=O)Nc2cnn(-c3ncc(N4CCCCC4)cn3)c2)c1 | 890 |
| COc1ccc(Cl)cc1NC(=O)Cn1ccc2c(=O)n(C)c(=O)n(C)c21 | 722 |
| Cc1cc(NC(=O)C(=O)NCC2(c3cccs3)CC2)no1 | 802 |
| CC(C)c1cc(=O)n(CC(=O)Nc2cccc3nsnc23)cn1 | 664 |
| COCCN1C(=O)c2ccccc2C(C(=O)NCCCN2C(C)CCCC2C)C1c1cccs1 (stereo unspecified) | 633 |
| Cc1sc(C)c(S(=O)(=O)N2CCC3(CC2)OCCO3)c1-c1cc(C(F)(F)F)on1 | 1110 |
| CCC(C)NC(=O)N1CCNC(=O)C1 (stereo unspecified) | 557 |
| COc1cc2oc3cc(C)oc(=O)c3c2cc1OC | 841 |

More lines, now with the values ahead:

| RP-LC retention time [s] | SMILES |
| --- | --- |
| 812 | CCC1Oc2ccc(S(=O)(=O)N3CCC(C(=O)Nc4ccccc4F)CC3)cc2NC1=O (stereo unspecified) |
| 582 | CN(C)c1ccc(C(CNC(=O)c2ccco2)N2CCc3ccccc3C2)cc1 (stereo unspecified) |
| 1040 | COc1cc(OC)cc(-c2noc(CCn3nc(-c4cccc(Cl)c4)ccc3=O)n2)c1 |
| 888 | CCc1noc(C2CCCCN2C(=O)CCc2c[nH]c3ccccc23)n1 (stereo unspecified) |
| 670 | CCN1C(=O)c2ccccc2Oc2ccc(C(=O)NCc3ccc(N(C)C)cc3)cc21 |
| 784 | CCN1CCCn2cc(S(=O)(=O)N3CCN(c4ccccc4OC)CC3)cc2C1=O |
| 721 | COc1cc(OC)c(NC(=O)Nc2c(-c3ccc(C)cc3)nc3ccccn23)cc1Cl |
| 1110 | O=C(Nc1nc2c(s1)CCc1ccccc1-2)c1ccc(S(=O)(=O)N2CCCC2)cc1 |
| 577 | Cc1ccc2c(Nc3ccc4c(c3)OCCO4)c(C(=O)N3CCOCC3)cnc2n1 |
| 864 | CCSc1ccccc1C(=O)NCc1cc(-c2ccccc2)on1 |
| 930 | O=S(=O)(Nc1cc(F)cc(F)c1)c1ccc(-c2nnc(C3CCC3)o2)o1 |
| 1360 | CC(C)Cc1ccc(S(=O)(=O)N2CCCC2c2nc(-c3ccc(F)cc3)no2)cc1 (stereo unspecified) |
| 864 | Cc1ccc(Cn2c(C(=O)NCc3ccccc3)cc3sccc32)cc1 |
| 833 | COc1ccc2cc3c(=O)n(Cc4ccccc4)nc-3oc2c1 |
| 1060 | CCC(C)NC(=O)Cn1nc(-c2ccccc2)c2cc(Cl)ccc21 (stereo unspecified) |
| 749 | Cc1ccc2nc(-c3cccc(Br)c3)c(Nc3ccc4c(c3)OCCO4)n2c1 |
| 634 | Cc1ccc(C)c(NC(=O)N2CCC(n3cnnc3C3CC3)C2)c1 (stereo unspecified) |
| 1040 | COc1ccc(S(=O)(=O)N2CCCC(C(=O)Nc3cc(C)ccc3C)C2)cc1Cl (stereo unspecified) |
| 791 | COc1ccc(-c2cn3c(CC(=O)Nc4cccc(Cl)c4)csc3n2)cc1OC |
| 1320 | O=c1n(Cc2cccc(Cl)c2)nc2c(S(=O)(=O)N3CCOCC3)cccn12 |
| 1170 | COc1ccc(-c2noc(-c3nc(Cc4cccc(F)c4)no3)n2)cc1 |
| 737 | CN(C)c1ccc(-c2nc3cnccn3c2Nc2ccc3c(c2)OCO3)cc1 |
| 618 | Cc1ccc(C)c(NC(=O)CSc2nncn2C)c1 |
| 717 | COc1cccc(-n2cc(C(=O)O)c3c2C(c2ccc(OC)c(OC)c2)CC(=O)N3)c1 (stereo unspecified) |

| RP-LC retention time [s] | SMILES |
| --- | --- |
| 763 | Cc1csc(-c2cc(S(=O)(=O)NCc3ccc(N(C)C)cc3)c(C)s2)n1 |
| 782 | Cc1ccc(N2CC(C(=O)NCc3nn(C)c4ccccc34)CC2=O)cc1 (stereo unspecified) |
| 823 | Cc1ccc(Nc2nc(C)cc(N3CCN(S(=O)(=O)c4cc(F)ccc4C)CC3)n2)cc1 |
| 650 | NS(=O)(=O)c1ccc(NC(=O)Cc2csc3nc(-c4ccccc4)cn23)cc1 |
| 715 | Cc1cccc(C)c1NC(=O)N1CC(n2cnnc2-c2ccccc2)C1 |
| 946 | COc1ccc(-c2nnc(COc3ccc(NC(=O)C4CCCC4)cc3)o2)cc1 |
| 1020 | Cc1[nH]c(C(=O)Nc2ccc(F)c(Cl)c2)c(C)c1S(=O)(=O)N1CCCCC1 |
| 998 | CCc1nc2ccccc2c(=O)n1Cc1noc(-c2cccc(N(C)C)c2)n1 |
| 915 | Fc1cccc(Cc2nc(-c3cccc(-c4ccn[nH]4)c3)no2)c1 |
| 981 | Cc1ccc(Cn2c(=O)c(N3CCN(C(=O)NC(C)C)CC3)nc3ccccc32)cc1 |
| 974 | CCC1Oc2ccc(S(=O)(=O)N3CCC(C(=O)N(CC)c4cccc(C)c4)CC3)cc2NC1=O (stereo unspecified) |
| 964 | Cc1cccc(C)c1NS(=O)(=O)c1ccc(-c2c(C)noc2C)cc1 |
| 568 | Cc1ccccc1Nc1nc(N)nc(CN2CCN(c3ccccn3)CC2)n1 |
| 815 | CN1C(=O)C2CCCCN2c2ccc(C(=O)NCCc3ccco3)cc21 (stereo unspecified) |
| 781 | CCc1cccc(C)c1Nc1c(-c2ccc(OC)cc2)nc2nc(C)cc(C)n12 |
| 956 | COc1ccc(Cl)cc1NC(=O)CN1C(=O)CCSc2ccccc21 |
| 898 | CC(C)c1ccc(NC(=O)CN2C(=O)CC(C)(C)S(=O)(=O)c3ccccc32)cc1 |
| 1380 | CCOC(=O)c1cnc(N2CCN(c3ccc(Cl)cc3)CC2)nc1C |
| 1180 | CCCn1cc(C2=CCN(S(=O)(=O)c3cccc(C(F)(F)F)c3)CC2)c2cccnc21 |
| 698 | CCC(C(=O)NCCc1c(C)nn(CC)c1C)n1c2ccccc2c2cnn(C)c(=O)c21 (stereo unspecified) |
| 716 | Cc1cccc2nnc(N3CCN(C(=O)c4ccc(C(F)(F)F)cc4)CC3)n12 |
| 1020 | O=C(CSc1ccc(F)cc1)OCc1cc(-c2ccc3c(c2)OCO3)on1 |
| 868 | COc1ccc(OCc2nc(-c3ccc(NS(C)(=O)=O)cc3)no2)cc1 |
